Literature values as cited in patent publication US4761398A, “Method of inducing birds to molt” (Embrex, Inc., priority 1986, dated 1988).
Where no end group is shown, it is not given here.

Molecular target: T1, LHRH receptor (Homo sapiens, UniProt P30968)
T1 sequence (P30968 1-328): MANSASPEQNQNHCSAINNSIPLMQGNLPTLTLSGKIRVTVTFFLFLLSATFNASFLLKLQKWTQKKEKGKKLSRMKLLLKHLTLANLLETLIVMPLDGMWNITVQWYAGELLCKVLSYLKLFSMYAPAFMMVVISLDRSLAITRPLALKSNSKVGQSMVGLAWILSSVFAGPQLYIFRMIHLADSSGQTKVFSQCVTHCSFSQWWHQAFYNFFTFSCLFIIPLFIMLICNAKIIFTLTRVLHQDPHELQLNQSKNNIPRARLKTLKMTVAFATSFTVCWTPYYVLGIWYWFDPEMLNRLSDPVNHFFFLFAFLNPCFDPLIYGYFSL
Conditions: literature review; cited from earlier work

| Substance | antagonistic activity | agonistic activity of antagonist analogs |
| --- | --- | --- |
| Leu^3 -LHRH (QHLSYGLRPG; ends and bridges not checked; UniProt P01148 24-33, looked up, variant W3L) | some antagonistic activity |  |
| [desHis^2, D-Ala^6 ] LHRH | found to have antagonistic activity |  |
| [desHis^2, D-Ala^6, desGly^10 ] LHRHEA | found to have antagonistic activity | showed some agonistic activity |
| [desHis^2, D-Phe^6 ]LHRH | increased antagonistic activity |  |
| [desHis^2, Leu^3, D-Ala^6, desGly^10 ] LHRHEA | found to have antagonistic activity | showed some agonistic activity |
| [desHis^2, Leu^3, desGly^10 ] LHRHEA | found to have antagonistic activity |  |
| [desHis^2, desGly^10 ] LHRHEA | significant antagonistic activity |  |

Molecular target: T1, LHRH receptor
Conditions: 6-substituted analogs, Nestor et al.; cited from earlier work

| Substance | potency relative to LHRH |
| --- | --- |
| [D-Cha^6 ]LHRH | more potent than LHRH |
| [D-Dca^6 ]LHRH | more potent than LHRH |
| [D-Mtf^6 ]LHRH | more potent than LHRH |
| [D-Nal(1)^6 ]LHRH | more potent than LHRH |
| [D-Nal(2)^6 ]LHRH | more potent than LHRH |
| [D-Pfp^6 ]LHRH | more potent than LHRH |
| [D-Tmo^6 ]LHRH | more potent than LHRH |
| [D-Tmp^6 ]LHRH | more potent than LHRH |
| [D-Trp^6, Pro^9 -NHEt]LHRH | more potent than LHRH |
| [D-ptf^6 ]LHRH | more potent than LHRH |

Same assay, conditions: Nestor et al.; cited from earlier work

| Substance | agonistic activity in words |
| --- | --- |
| [D-Dca^6 ]LHRH | activity dropped off |
| [D-Nal(2)^6 ], aza-Gly^10 ]LHRH | one of the most potent LHRH agonists known |
